Assay results published in US20230270114A1, “FUNGICIDAL COMPOSITIONS” (SYNGENTA CROP PROTECTION AG, priority 2020, published 2023).
Where two headings read alike, the source gives them in different places.

Tests used:
[1] = tested on: Puccinia recondita f. sp. tritici; assay type: in vivo; settings: foliar, wheat leaf disc preventative, inoculated 1 day after application, compared to untreated control
[2] = tested on: Mycosphaerella graminicola (Septoria tritici); assay: Example A14: Mycosphaerella graminicola (Septoria tritici) / liquid culture (Septoria blotch); assay type: cell-based; settings: Zymoseptoria tritici; read-out: control of Mycosphaerella graminicola
[3] = tested on: Magnaporthe grisea (Pyricularia oryzae); assay: whole plant or invertebrate; assay type: in vivo; settings: foliar, read-out: control of Magnaporthe grisea
Phakopsora pachyrhizi = assay: Example A8: Phakopsora pachyrhizi / soybean / preventative (soybean rust); assay type: in vivo; settings: foliar, soybean leaf disks preventative, inoculated one day after application, compared to untreated control
Alternaria solani = assay: Example A1: Alternaria solani / tomato / leaf disc (early blight); assay type: in vivo; settings: foliar, tomato leaf disks inoculated 2 days after application, compared to untreated control
[4] = tested on: Botryotinia fuckeliana (Botrytis cinerea); assay: Example A2: Botryotinia fuckeliana (Botrytis cinerea) / liquid culture (gray mould); assay type: cell-based; settings: read-out: control of Botryotinia fuckeliana
Description: Example A2: Botryotinia Fuckeliana (Botrytis Cinerea) / Liquid Culture (Gray Mould) Conidia of the fungus from cryogenic storage are directly mixed into nutrient broth (Vogels broth). […] […].38.

[5] = tested on: Glomerella lagenarium (Colletotrichum lagenarium); assay: Example A3: Glomerella lagenarium (Colletotrichum lagenarium) / liquid culture (anthracnose); assay type: cell-based; settings: Colletotrichum orbiculare; read-out: control of Glomerella lagenarium
Pyrenophora teres = assay: Example A12: Pyrenophora teres / barley / leaf disc preventative (net blotch); assay type: in vivo; settings: foliar, inoculated 2 days after application, compared to untreated control
[6] = tested on: Monographella nivalis (Microdochium nivale); assay: Example A6: Monographella nivalis (Microdochium nivale) / liquid culture (foot rot cereals); assay type: cell-based; settings: read-out: control of Monographella nivalis
[7] = tested on: Puccinia recondita f. sp. tritici; assay type: in vivo; settings: foliar, 24 h, wheat leaf disc curative, applied 1 day after inoculation, compared to untreated control
[8] = tested on: Mycosphaerella arachidis (Cercospora arachidicola); assay: Example A7: Mycosphaerella arachidis (Cercospora arachidicola) / liquid culture (early leaf spot); assay type: cell-based; settings: read-out: control of Mycosphaerella arachidis

SMILES	pest or weed control at 200 ppm [1] [%]	inhibition of growth at 20 ppm [2] [%]	pest or weed control at 200 ppm [3] [%]	pest or weed control at 200 ppm (Phakopsora pachyrhizi) [%]	pest or weed control at 200 ppm (Alternaria solani) [%]	inhibition of growth at 20 ppm [4] [%]	inhibition of growth at 20 ppm [5] [%]	pest or weed control at 200 ppm (Pyrenophora teres) [%]	inhibition of growth at 20 ppm [6] [%]	pest or weed control at 200 ppm [7] [%]	inhibition of growth at 20 ppm [8] [%]	pest or weed control at 200 ppm ([3]; 200 ppm) [%]	melting point [°C]
Cc1sc(N(C(=O)COCc2ccccc2)c2cc(F)nc(F)c2)nc1C(=O)NC1CCC1(C)C (stereo not drawn) [X.14, 2-[(2-benzyloxyacetyl)-(2,6-difluoro-4-pyridyl)amino]-N-(2,2-dimethylcyclobutyl)-5-methyl-thiazole-4-carboxamide]	≥ 80	≥ 80	≥ 80	≥ 80	≥ 80	≥ 70	≥ 80	≥ 80	≥ 80	≥ 80			
CCOCC(=O)N(c1cc(F)nc(F)c1)c1nc(C(=O)NC2CCC2(C)C)c(C)s1 (stereo not drawn) [X.15, 2-[(2,6-difluoro-4-pyridyl)-(2-ethoxyacetyl)amino]-N-(2,2-dimethylcyclobutyl)-5-methyl-thiazole-4-carboxamide]	≥ 80	≥ 80	≥ 80	≥ 80	≥ 80	≥ 70	≥ 80	≥ 80	≥ 80	≥ 80			
Cc1sc(N(C(=O)CCl)c2cc(F)nc(F)c2)nc1C(=O)NC1CCC1(C)C (stereo not drawn) [X.17, 2-[(2-chloroacetyl)-(2,6-difluoro-4-pyridyl)amino]-N-(2,2-dimethylcyclobutyl)-5-methyl-thiazole-4-carboxamide]	≥ 80	≥ 80	≥ 80	≥ 80	≥ 80		≥ 80	≥ 80	≥ 80	≥ 80	≥ 80		
Cc1sc(N(C(=O)CF)c2cc(F)nc(F)c2)nc1C(=O)NC1CCC1(C)C (stereo not drawn) [X.27, 2-[(2,6-difluoro-4-pyridyl)-(2-fluoroacetyl)amino]-N-(2,2-dimethylcyclobutyl)-5-methyl-thiazole-4-carboxamide]	≥ 80	≥ 80		≥ 80	≥ 80		≥ 80	≥ 80	≥ 80	≥ 80	≥ 80	≥ 80	
COCC(=O)N(c1cc(F)nc(F)c1)c1nc(C(=O)NC2CCC2(C)C)c(C)s1 (stereo not drawn) [X.29, 2-[(2,6-difluoro-4-pyridyl)-(2-methoxyacetyl)amino]-N-(2,2-dimethylcyclobutyl)-5-methyl-thiazole-4-carboxamide]	≥ 80	≥ 80	≥ 80	≥ 80	≥ 80	≥ 70	≥ 80	≥ 80	≥ 80	≥ 80	≥ 80		
Cc1sc(N(C=O)c2cc(F)nc(F)c2)nc1C(=O)NC1CCC1(C)C (stereo not drawn) [X.33, 2-[(2,6-difluoro-4-pyridyl)-formyl-amino]-N-(2,2-dimethylcyclobutyl)-5-methylthiazole-4-carboxamide]	≥ 80	≥ 80	≥ 80	≥ 80	≥ 80	≥ 70	≥ 80	≥ 80	≥ 80	≥ 80	≥ 80		
CCOC(=O)C(=O)N(c1cc(F)nc(F)c1)c1nc(C(=O)NC2CCC2(C)C)c(C)s1 (stereo not drawn) [X.34, ethyl 2-[(2,6-difluoro-4-pyridyl)-[4-[(2,2-dimethylcyclobutyl)carbamoyl]-5-methyl-thiazol-2-yl]amino]-2-oxo-acetate]	≥ 80	≥ 80	≥ 80	≥ 80	≥ 80	≥ 70	≥ 80	≥ 80	≥ 80	≥ 80	≥ 80		
Cc1sc(N(C(=O)c2ccccc2)c2cc(F)nc(F)c2)nc1C(=O)NC1CCC1(C)C (stereo not drawn) [X.35, 2-[benzoyl-(2,6-difluoro-4-pyridyl)amino]-N-(2,2-dimethylcyclobutyl)-5-methylthiazole-4-carboxamide]	≥ 80		≥ 80	≥ 80	≥ 80	≥ 70	≥ 80	≥ 80	≥ 80				
CC(=O)N(c1cc(F)nc(F)c1)c1nc(C(=O)NC2CCC2(C)C)c(C)s1 (stereo not drawn) [X.36, 2-[acetyl-(2,6-difluoro-4-pyridyl)amino]-N-(2,2-dimethylcyclobutyl)-5-methylthiazole-4-carboxamide]	≥ 80	≥ 80	≥ 80		≥ 80	≥ 70	≥ 80	≥ 80	≥ 80				
Cc1sc(N(C(=O)C(C)C)c2cc(F)nc(F)c2)nc1C(=O)NC1CCC1(C)C (stereo not drawn) [X.38, 2-[(2,6-difluoro-4-pyridyl)-(2-methylpropanoyl)amino]-N-(2,2-dimethylcyclobutyl)-5-methyl-thiazole-4-carboxamide]	≥ 80		≥ 80	≥ 80	≥ 80	≥ 70	≥ 80	≥ 80	≥ 80	≥ 80			123 to 126
